The values below are quoted from earlier work in patent publication US20230320397A1, “EXTRACTS FOR HEALTH SUPPLEMENTS” (EXTENDED LONGEVITY, priority 2022, published 2023).

Structures are written as SMILES.

For this data set the following is noted: by the use of heat.

For the molecule `COc1cc(/C=C/C(=O)CC(=O)/C=C/c2ccc(O)c(OC)c2)ccc1O` [curcumin], the increased solubility is 12 fold.
